{
  "source": "paper PMC9629815",
  "about": "“MK256 is a novel CDK8 inhibitor with potent antitumor activity in AML through downregulation of the STAT pathway” (Oncotarget, 2022)",
  "key": {"CYP2D6": {"molecular_target": "CYP2D6 (Homo sapiens, UniProt P10635)", "sequence (P10635 whole entry)": "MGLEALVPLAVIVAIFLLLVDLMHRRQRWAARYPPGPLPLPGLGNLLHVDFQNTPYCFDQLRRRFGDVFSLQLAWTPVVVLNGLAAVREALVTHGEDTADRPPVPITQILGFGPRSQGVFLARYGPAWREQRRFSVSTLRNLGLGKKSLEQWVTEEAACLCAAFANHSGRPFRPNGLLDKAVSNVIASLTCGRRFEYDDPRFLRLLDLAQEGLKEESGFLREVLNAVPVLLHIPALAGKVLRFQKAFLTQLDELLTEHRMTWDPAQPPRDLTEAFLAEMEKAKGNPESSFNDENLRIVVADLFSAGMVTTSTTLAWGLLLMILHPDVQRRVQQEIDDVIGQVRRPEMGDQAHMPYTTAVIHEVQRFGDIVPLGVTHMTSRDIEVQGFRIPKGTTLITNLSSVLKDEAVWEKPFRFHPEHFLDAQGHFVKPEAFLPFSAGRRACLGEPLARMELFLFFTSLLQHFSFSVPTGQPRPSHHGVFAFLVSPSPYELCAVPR", "test": "Cytochrome P450 inhibition assay", "type": "in vitro ADME", "details": "50 uM"}, "CYP2C19": {"molecular_target": "CYP2C19 (Homo sapiens, UniProt P33261)", "sequence (P33261 whole entry)": "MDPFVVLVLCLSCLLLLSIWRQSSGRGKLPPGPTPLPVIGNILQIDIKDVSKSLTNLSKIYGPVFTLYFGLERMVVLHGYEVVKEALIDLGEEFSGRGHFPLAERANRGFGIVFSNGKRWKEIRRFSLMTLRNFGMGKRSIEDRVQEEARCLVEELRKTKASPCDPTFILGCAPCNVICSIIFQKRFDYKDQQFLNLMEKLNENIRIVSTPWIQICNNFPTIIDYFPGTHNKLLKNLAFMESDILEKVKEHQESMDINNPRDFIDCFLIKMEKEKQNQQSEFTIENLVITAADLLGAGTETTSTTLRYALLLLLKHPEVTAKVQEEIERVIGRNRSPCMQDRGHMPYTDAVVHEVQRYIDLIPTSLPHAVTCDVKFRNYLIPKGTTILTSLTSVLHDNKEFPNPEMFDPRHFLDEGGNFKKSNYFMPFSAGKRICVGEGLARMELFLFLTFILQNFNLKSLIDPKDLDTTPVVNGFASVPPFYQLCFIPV", "test": "Cytochrome P450 inhibition assay", "type": "in vitro ADME", "details": "50 uM"}, "[1]": {"tested_on": "CD34+/CD38- AML TEX cells", "test": "Flow cytometry of differentiation/maturation markers", "type": "cell-based, human", "experimental": "[…] novel human leukemic cell line (TEX) cells were plated on 100 mm culture dishes at 5 × 10^5 per well, starved with medium containing IMDM supplemented with 1.5%FCS, 2 ng/ml SCF, and 0.2 ng/ml IL-3 (Amgen, Thousand Oaks, CA, USA) overnight. […] Media with tested drugs was replaced on the third day. Following the 6-day treatments, cultures were washed once in Sort buffer (PBS + 2% FBS + 2 mM EDTA), and resuspended to a final concentration of 50 million cells/mL into a 96-well V-shaped plate. Cells were subsequently incubated with Zombie Aqua Fixable Viability Dye (Thermo), washed with Sort buffer, and incubated with Human FcX (BioLegend) to prevent non-specific antibody binding. Following FcX incubation, cells were washed with Sort buffer and incubated with cell surface antibody mix diluted in the BV stain buffer (BD Biosciences) following manufacturer instructions for 30 mins on ice in the dark. Cells were then washed with 100 mL Sort buffer and permeabilized in fresh Fix/Perm solution (Foxp3 Transcription Factor Staining Buffer from eBioscience) following the manufacturer’s instructions. Cell were subsequently incubated in intracellular stain mix in Perm Buffer (1 mL 10× Perm Buffer (eBiosceince) + 8.8 mL dH2O + 2% FCS) for 30 mins on ice in dark. Isotype controls were stained with mouse IgG conjugated to FITC, PE, PerCP-Cy5.5, PE-Cy7, APC, and Alexa Fluor™ 700. Antibodies used to stain cells were FITC-conjugated anti-CD93, PE-conjugated anti-CD96, PerCP-Cy5.5-conjugated anti-CD38, PE-Cy7-conjugated anti CD-34, APC-conjugated anti-CD117, and Alexa Fluor™ 700-conjugated LIVE/DEAD (Invitrogen). Stained samples were resuspended in Perm Buffer and run on a FACSAriaII Flow Cytometer (BD Biosciences). Data were analyzed in FACSDiva (BD Biosciences) and FlowJo (Treestar). To determine the absolute numbers of cells in samples analyzed by FACS, AccuCount beads (Spherotech) were added to stained samples prior to each FACS run per manufacturer’s instructions, and absolute cell counts were calculated based on the known number of beads added. In order to cellularly differentiate apoptosis in AML cells, MOLM14, as a result of synergetic treatments of MK256 combined with ABT199, we used Dead Cell Apoptosis Kits with Annexin V (Invitrogen). MOLM14 cells were plated on a 96-well V-shaped plate at 5x10^5 per well, starved with medium containing 99% RPMI 1640, 1% FBS, and 1X Antibiotic-Antimycotic (Invitrogen). MK256 were added to final concentrations of 13.7 nM, 41.2 nM, 123.5 nM, 370.4 nM, […] on each column, while ABT199 was at final concentrations of 0.2 nM, 0.5 nM, 4.1 nM, 12.3 nM, 37.0 nM on each row. Following 72-hr retreatment, cultures were washed once in Sort buffer (PBS + 2% FBS + 2 mM EDTA) and resuspended to a final concentration of 10^4 cells/well into a 96-well V-shaped plate. Cells were subsequently incubated with Alex Fluor™ 488 annexin V and PI for Flow Cytometry following manufacturer’s instructions."}, "CCL2 mRNA in KG-1 cells": {"tested_on": "CCL2 mRNA in KG-1 cells", "test": "Real-time RT-PCR of CCL2 mRNA", "type": "cell-based", "experimental": "(§1) Total RNA from the various cell lines was isolated using the RNeasy extraction method (Qiagen, Valencia, CA, USA). First-strand cDNA was synthesized from total RNA by iScript cDNA synthesis (Bio-Rad, Hercules, CA, USA) according to the manufacturer’s instructions. Taqman RT–PCR analysis was performed on cDNA in a 384-well plate, using a Prism 7900HT Real-Time PCR System (Applied Biosystems, Foster City, CA, USA). Primers and Taqman probes were purchased from Applied Biosystems. The expression of target genes MCL1 (Hs03043899_m1, Thermo fisher) and CCL2 (Hs00234140_m1, Thermo fisher) in each sample was assayed in triplicate and normalized to human GUSB for mRNA expression analysis. An unpaired t test was used to calculate statistical significance."}, "[2]": {"tested_on": "CCL2 mRNA in MOLM-14 cells", "test": "Real-time RT-PCR of CCL2 mRNA", "type": "cell-based", "experimental": "as §1"}, "Kinetic solubility assay": {"test": "Kinetic solubility assay", "type": "physicochemical", "experimental": "MK256 was supplied as DMSO stock at 10 mM. 190 μL of buffer solution (PBS, pH 7.4) was added to all wells on a 96-well Millipore Solubility filter plate. 10 μL of MK256 or control compound testosterone was transferred in triplicate to the buffer wells to a final concentration of 500 μM. The filter plate was shaken for 1.5 hours at room temperature. Samples were filtered via a vacuum system into a fresh 96-well plate. Compounds were diluted to 500 μM (highest concentration) in DMSO and further diluted 1:10 for calibration curve (three-point). HPLC/UV analysis was performed on all samples (220 nm, 254 nm, and 280 nm)."}},
  "note": "Like-named read-outs stand apart in the source and are kept apart here.",
  "data": [
    {"smiles": "Nc1nccc2c(Br)cc3cc(C(=O)O)ccc3c12", "note": "[MK256]", "values": [
      {"measurement": "cytochrome P450 inhibition", "setting": "CYP2D6", "result": "no inhibition"},
      {"measurement": "cytochrome P450 inhibition", "setting": "CYP2C19", "result": "no inhibition"},
      {"measurement": "differentiation of TEX cells", "setting": "[1]; 50 nM", "result": "slightly induced the differentiation"},
      {"measurement": "decrease of CD93 relative to control", "setting": "[1]; 50 nM, day 6", "result": 6.5, "unit": "%"},
      {"measurement": "increase of CD117 population relative to control", "setting": "[1]; 50 nM, day 6", "result": 16.5, "unit": "%"},
      {"measurement": "reduction in CD34 compared to control cells", "setting": "[1]; 50 nM, day 6", "result": 13, "unit": "%"},
      {"measurement": "differentiation of TEX cells", "setting": "[1]; 500 nM", "result": "much more effective"},
      {"measurement": "decrease of CD93 relative to control", "setting": "[1]; 500 nM, day 6", "result": "approximately 30%"},
      {"measurement": "increase of CD117 population relative to control", "setting": "[1]; 500 nM, day 6", "result": 8.6, "unit": "%"},
      {"measurement": "reduction in CD34 compared to control cells", "setting": "[1]; 500 nM, day 6", "result": 28, "unit": "%"},
      {"measurement": "expression of CD96 with or without treatment", "setting": "[1]; day 6", "result": "no difference"},
      {"measurement": "reduction of CD38 negativity", "setting": "[1]; treated vs control (60% CD38-)", "result": "approximately 2 fold"},
      {"measurement": "expression of CCL2 downregulated to", "setting": "CCL2 mRNA in KG-1 cells; 300 nM", "result": "approximately 50%"},
      {"measurement": "expression of CCL2 downregulated to", "setting": "CCL2 mRNA in KG-1 cells; 1 uM", "result": "~40", "unit": "%"},
      {"measurement": "mRNA level of CCL2", "setting": "[2]; 1 uM", "result": "abolished"},
      {"measurement": "mrna remaining at 0.3 µM", "setting": "[2]; Homo sapiens, MOLM-14, 300 nM, read-out: mRNA level of CCL2 (remaining)", "result": "~5", "unit": "%"},
      {"measurement": "solubility kinetic at 1.5 h", "setting": "Kinetic solubility assay; PBS buffer, aqueous buffer, kinetic from dmso stock, pH 7.4, read-out: KSOL (μM) PBS (PH 7.4)", "result": 566, "unit": "µM"},
      {"measurement": "solubility kinetic at 1.5 h", "setting": "Kinetic solubility assay; PBS, pH 7.4, read-out: KSOL (μM) PBS (PH 7.4)", "result": 566, "unit": "µM"}
    ]}
  ]
}
